Experiments:
Experiment in all cases: relative viability (nuclei count vs DMSO), 5 days (fraction); higher = more cells survive
RO-3306 + Bortezomib = compound: C1=CC2=C(C=CC(=C2)C=C3C(=O)NC(=NCC4=CC=CS4)S3)N=C1 [RO-3306] + CC(C)C[C@H](NC(=O)[C@H](Cc1ccccc1)NC(=O)c1cnccn1)B(O)O [Bortezomib] (partner 0.002 µM)
Method in brief: (§1)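 Nuclei were stained with Hoechst during a one-step fixation (final 0.05% Triton X-100, 1% formaldehyde, 1 ug/ml Hoechst) carried out 5 days after dosing, then counted on 4× images. The cells, lung cancer lines in 1536-well plates, had been dosed by pin tool the day after seeding with one drug alone or a fixed anchor-drug dose plus five library-drug doses (not always all listed) in √10 steps. Relative viability is the nuclei count in treated wells divided by that in vehicle wells, and each value is the median of duplicate plates.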

[1] = compound: O=S(=O)(c1ccccc1)N(CC(F)(F)F)c1ccc(C(O)(C(F)(F)F)C(F)(F)F)cc1 + CC(C)C[C@H](NC(=O)[C@H](Cc1ccccc1)NC(=O)c1cnccn1)B(O)O [Bortezomib] (partner 0.002 µM)
Method in brief: as §1

[2] = compound: O=S(=O)(c1ccccc1)N(CC(F)(F)F)c1ccc(C(O)(C(F)(F)F)C(F)(F)F)cc1 + CCNC(=O)c1noc(-c2cc(C(C)C)c(O)cc2O)c1-c1ccc(CN2CCOCC2)cc1 [Luminespib] (partner 0.01 µM)
Method in brief: as §1

[3] = compound: O=S(=O)(c1ccccc1)N(CC(F)(F)F)c1ccc(C(O)(C(F)(F)F)C(F)(F)F)cc1 + COc1cc2c(Oc3ccc(NC(=O)C4(C(=O)Nc5ccc(F)cc5)CC4)cc3F)ccnc2cc1OCCCN1CCOCC1 [Foretinib] (partner 0.25 µM)
Method in brief: as §1

[4] = compound: O=S(=O)(c1ccccc1)N(CC(F)(F)F)c1ccc(C(O)(C(F)(F)F)C(F)(F)F)cc1 + Cc1nc(Nc2ncc(C(=O)Nc3c(C)cccc3Cl)s2)cc(N2CCN(CCO)CC2)n1 [Dasatinib] (partner 0.075 µM)
Method in brief: as §1

Row | Cell Line | relative viability (RO-3306 + Bortezomib; first compound 0.01 µM) | relative viability (RO-3306 + Bortezomib; first compound 0.03162 µM) | relative viability (RO-3306 + Bortezomib; first compound 0.1 µM) | relative viability (RO-3306 + Bortezomib; first compound 0.3162 µM) | relative viability (RO-3306 + Bortezomib; first compound 1 µM) | relative viability ([1]; first compound 0.8 µM) | relative viability ([1]; first compound 2.53 µM) | relative viability ([1]; first compound 8 µM) | relative viability ([2]; first compound 0.8 µM) | relative viability ([2]; first compound 2.53 µM) | relative viability ([2]; first compound 8 µM) | relative viability ([3]; first compound 0.8 µM) | relative viability ([3]; first compound 2.53 µM) | relative viability ([3]; first compound 8 µM) | relative viability ([4]; first compound 0.8 µM) | relative viability ([4]; first compound 2.53 µM) | relative viability ([4]; first compound 8 µM)
1 | NCI-H2228 | 0.937 | 0.47 | 0.917 | 0.893 | 0.636 | 1.13 | 0.872 | 0.906 | 0.154 | 0.165 | 0.122 | 0.65 | 0.657 | 0.839 | 0.415 | 0.401 | 0.363
2 | NCI-H2347 | 1.07 | 0.633 | 0.98 | 0.823 | 0.711 | 1.32 | 0.819 | 0.92 | 0.512 | 0.41 | 0.286 | 1.2 | 0.996 | 0.683 | 0.263 | 0.24 | 0.289
3 | NCI-H2405 | 1.07 | 0.963 | 0.982 | 0.959 | 1.03 | 1.02 | 0.952 | 0.885 | 0.718 | 0.616 | 0.646 | 1.14 | 1.05 | 0.979 | 0.117 | 0.15 | 0.134
4 | NCI-H3122 | 0.952 | 1.01 | 1.06 | 1.03 | 0.738 | 0.989 | 0.963 | 0.907 | 0.0579 | 0.0537 | 0.115 | 0.891 | 0.792 | 1.05 | 0.725 | 0.525 | 0.817
5 | PC-3 [JPC-3] | 0.936 | 0.82 | 0.965 | 0.865 | 0.805 | 0.642 | 0.743 | 0.744 | 0.654 | 0.717 | 0.679 | 1.1 | 0.983 | 0.951 | 1.03 | 1.05 | 0.972
6 | PC-14 | 1.16 | – | 0.991 | 0.941 | 0.865 | 0.986 | 0.88 | 0.496 | 0.153 | 0.132 | 0.19 | 1.11 | 1.09 | 0.988 | 0.265 | 0.213 | 0.106
7 | RERF-LC-KJ | 1.3 | 0.952 | 1.01 | 0.987 | 1.01 | 1.12 | 0.95 | 1.02 | 1.29 | 1.17 | 1.17 | 0.816 | 0.746 | 0.751 | 0.753 | 0.652 | 0.641
8 | SK-LU-1 | 0.767 | 0.932 | 1.08 | 1.34 | 0.853 | 1.09 | 1.04 | 1.38 | 0.169 | 0.165 | 0.196 | 0.716 | 0.857 | 0.695 | 0.161 | 0.166 | 0.177
9 | SW 1573 | 1.22 | – | 0.924 | 0.972 | 0.894 | 1.34 | 0.936 | 0.811 | 0.266 | 0.218 | 0.207 | 0.954 | 0.898 | 1.04 | 0.576 | 0.46 | 0.451
